The source of these data is patent US8536202B2, “Triazole-substituted anthranilamides as pesticides” (Bayer Cropscience AG, priority 2010, dated 2013).

Where two headings read alike, the source gives them in different places.

Data set [1] has as its system larvae of the mustard beetle (Phaedon cochleariae). Kind of data set: Phaedon test (PHAECO spray treatment). The note with it: 168 h, read-out: activity in %. The data set is classed as in vivo. In short, it runs like this: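 Mortality of mustard beetle larvae, expressed as percent killed (100% all, 0% none), assessed 7 days after spraying. Spray liquor made from compound in acetone plus dimethylformamide with alkylaryl polyglycol ether, diluted in emulsifier-containing water to the desired concentration.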

For data set [2], the system named is two-spotted spider mite (Tetranychus urticae). Kind of data set: Tetranychus test, OP-resistant (TETRUR spray treatment). The note with it: 100 g/ha, after 6 days. The data set is classed as in vivo. As to the method: (§1) Solvents: 78.0 parts by weight of acetone • • 1.5 parts by weight of dimethylformamide
(§2) Emulsifier: 0.5 part by weight of alkylaryl polyglycol ether
An appropriate preparation of active compound is prepared by mixing 1 part by weight of active compound with the stated amounts of solvent and emulsifier and diluting the concentrate with emulsifier-containing water to the desired concentration. Leaf discs of French bean (Phaseolus vulgaris) infested by all stages of the two-spotted spider mite (Tetranychus urticae) are sprayed with a preparation of active compound at the desired concentration.
After 6 days, the activity in % is ascertained. Here, 100% means that all of the spider mites have been killed; 0% means that no spider mites have been killed.

Data set [3] in a line: log P determination by HPLC on reversed-phase columns (EEC Directive 79/831 Annex V.A8). The data set is classed as physicochemical. The note with it: pH 2.7. An outline of the steps: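 Calibration used unbranched alkan-2-ones of 3 to 16 carbons with known log P, values interpolated linearly from retention times between neighbouring standards. Acidic-range LC-MS run at pH 2.7, eluents aqueous and acetonitrile formic acid 0.1%, linear gradient 10% to 95% acetonitrile.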

Data set [4] concerns green peach aphid (Myzus persicae). Kind of data set: Myzus test (MYZUPE spray treatment), Use Example 4. The data set is classed as in vivo. The note with it: 144 h, read-out: activity in %. In short, it runs like this:
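Compound was formulated in acetone/dimethylformamide with alkylaryl polyglycol ether emulsifier and diluted in emulsifier-containing water. It was sprayed onto Chinese cabbage leaf discs infested with all stages of Myzus persicae. Mortality (%) was scored after 6 days, where 100% means all aphids killed.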

The subject of data set [5] is caterpillars of the armyworm (Spodoptera frugiperda). Kind of data set: Spodoptera frugiperda test (SPODFR spray treatment). The data set is classed as in vivo. The note with it: 168 h, read-out: activity in %. An outline of the steps: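 Percent caterpillar mortality read 7 days after infestation (0% none killed, 100% all killed). Treatment was a spray of the acetone/DMF/emulsifier formulation, water-diluted to test concentration, onto Zea mays leaf discs, allowed to dry before larvae were added.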

The subject of the next data set is Boophilus microplus. Kind of data set: Boophilus microplus test (BOOPMI injection). The data set is classed as in vivo. To be noted: Rhipicephalus microplus, 168 h, 20 μg/animal, after 7 days, read-out: activity in % (no fertile eggs laid). As to the method: (§3) Solvent: dimethyl sulphoxide
An appropriate preparation of active compound is prepared by mixing 10 mg of active compound with 0.5 ml of solvent and diluting the concentrate with solvent to the desired concentration. The solution of active compound is injected into the abdomen (Boophilus microplus), and the animals are transferred to dishes and kept in a climatized room. Activity is assessed by deposition of fertile eggs.
After 7 days, the activity in % is assessed. Here, 100% means that none of the ticks has laid fertile eggs.

The test system of the next data set is Lucilia cuprina larvae. Kind of data set: Lucilia cuprina test (LUCICU). The note with it: 48 h, read-out: kill in %. The data set is classed as in vivo. As to the method: as §3
An appropriate preparation of active compound is prepared by mixing 10 mg of active compound with 0.5 ml of dimethyl sulphoxide and diluting the concentrate with water to the desired concentration.
Vessels containing horse meat treated with the preparation of active compound at the desired concentration are populated with approximately 20 Lucilia cuprina larvae.
After 2 days, the kill in % is ascertained. Here, 100% means that all of the larvae have been killed; 0% means that no larvae have been killed.

The next data set deals with adult Musca domestica. Kind of data set: Musca domestica test (MUSCDO). The note with it: 48 h, read-out: kill in %. The data set is classed as in vivo. As to the method: as §3
An appropriate preparation of active compound is prepared by mixing 10 mg of active compound with 0.5 ml of dimethyl sulphoxide and diluting the concentrate with water to the desired concentration. Vessels containing a sponge treated with the preparation of active compound at the desired concentration are populated with adult Musca domestica.
After 2 days, the kill in % is ascertained. Here, 100% means that all of the flies have been killed; 0% means that no flies have been killed.

Data set [6] relates to green peach aphid (Myzus persicae). Kind of data set: Myzus test (MYZUPE spray treatment), Use Example 8, comparison with prior art. To be noted: 100 g/ha, 6 d. The data set is classed as in vivo. As to the method:
as §1, §2
An appropriate preparation of active compound is prepared by mixing 1 part by weight of active compound with the stated amounts of solvents and emulsifier and diluting the concentrate with emulsifier-containing water to the desired concentration.
Leaf discs of Chinese cabbage (Brassica pekinensis) infested by all stages of the green peach aphid (Myzus persicae) are sprayed with a preparation of active compound at the desired concentration. After the desired time, the activity in % is ascertained. Here, 100% means that all of the aphids have been killed; 0% means that no aphids have been killed.

Where [7] appears, read: HPLC on reversed-phase columns (C 18), EEC Directive 79/831 Annex V.A8, read-out: logP.

For `CNC(=O)c1cc(C#N)cc(C)c1NC(=O)c1cc(Cn2ncc(C(C)(C)C)n2)nn1-c1ncccc1Cl` [Example 39], the pest or weed control at 100 g/ha in [1] (100 g/ha, after 7 days) was 83%. The compound further displayed an activity in % in data set [2] of 90%. This compound had a chromatographic logP in data set [3] of 2.89.

Turning to `Cc1cc(C#N)cc(C(=O)NC(C)(C)C)c1NC(=O)c1cc(Cn2cc(C3CC3)nn2)nn1-c1ncccc1Cl` [Example 50], the pest or weed control at 100 g/ha in data set [4] (100 g/ha, after 6 days) was found to be 90%; in [1] (100 g/ha, after 7 days) it was 100%; in data set [5] (100 g/ha, after 7 days), 83%. In [2], this compound came in with an activity in % of 80%. For the same compound, in data set [3], the chromatographic logP came to 2.57.

`Cc1cc(Cl)cc(C(N)=O)c1NC(=O)c1cc(Cn2cc(C(F)(C(F)(F)F)C(F)(F)F)nn2)nn1-c1ncccc1Cl` [Example 231]: the pest or weed control at 0.02 mg in the data set with Boophilus microplus amounted to 100%. Also, the pest or weed control at 100 ppm amounted to 100% with Lucilia cuprina larvae and 80% in the data set on adult Musca domestica. The pest or weed control at 100 g/ha in data set [4] (100 g/ha, after 6 days) came to 100%; in data set [1] (100 g/ha, after 7 days), 100%; in data set [5] (100 g/ha, after 7 days), 100%. The compound further registered a chromatographic logP in data set [3] of 3.16.

`Cc1cc(Cl)cc(C(=O)NC2CC2)c1NC(=O)c1cc(Cn2cc(C(F)(C(F)(F)F)C(F)(F)F)nn2)nn1-c1ncccc1Cl` [Example 232]: the pest or weed control at 0.02 mg in the data set on Boophilus microplus came to 100%. In addition, the pest or weed control at 100 ppm with Lucilia cuprina larvae and in the data set with adult Musca domestica was 100% throughout. Further, the pest or weed control at 100 g/ha was found to be 80% in data set [4] (100 g/ha, after 6 days); 100% in data set [1] (100 g/ha, after 7 days); 100% in data set [5] (100 g/ha, after 7 days). Besides, the chromatographic logP in data set [3] came to 3.61.

As to `Cc1cc(I)cc(C(N)=O)c1NC(=O)c1cc(Cn2cc(C(F)(C(F)(F)F)C(F)(F)F)nn2)nn1-c1ncccc1Cl` [Example 239], the pest or weed control at 0.02 mg with Boophilus microplus turned out to be 100%. Further, the pest or weed control at 100 ppm in the data set with Lucilia cuprina larvae and in the data set with adult Musca domestica was 100% throughout. Besides, the pest or weed control at 100 g/ha in [4] (100 g/ha, after 6 days) turned out to be 100%; in data set [1] (100 g/ha, after 7 days), 100%; in data set [5] (100 g/ha, after 7 days), 100%. The compound also had a chromatographic logP in data set [3] of 3.35.

With `CNC(=O)c1cc(Cl)cc(Cl)c1NC(=O)c1cc(Cn2cc(C(F)(C(F)(F)F)C(F)(F)F)nn2)nn1-c1ncccc1Cl` [Example 241], the pest or weed control at 0.02 mg in the data set on Boophilus microplus was 100%. Moreover, the values for the pest or weed control at 100 ppm in the data set with Lucilia cuprina larvae and with adult Musca domestica were 100% and 80%, respectively. Also, the pest or weed control at 100 g/ha in [4] (100 g/ha, after 6 days) was determined as 100%; in data set [1] (100 g/ha, after 7 days), 100%; in [5] (100 g/ha, after 7 days), 100%. The chromatographic logP in data set [3] was 3.31.

For the compound `Cc1cc(Cl)cc(C(N)=O)c1NC(=O)c1cc(Cn2ncc(C(F)(C(F)(F)F)C(F)(F)F)n2)nn1-c1ncccc1Cl` [Example 263], in the data set with Boophilus microplus, the pest or weed control at 0.02 mg came out at 100%. For the same compound, the pest or weed control at 100 ppm in the data set with Lucilia cuprina larvae and in the data set on adult Musca domestica was 100% each time. The pest or weed control at 100 g/ha in data set [4] (100 g/ha, after 6 days) stood at 80%; in [1] (100 g/ha, after 7 days), 100%; in [5] (100 g/ha, after 7 days), 100%. Moreover, the chromatographic logP in data set [3] was 3.48.

On to `Cc1cc(C#N)cc(C(=O)NC2(C3CC3)CC2)c1NC(=O)c1cc(Cn2ncc(C(F)(F)F)n2)nn1-c1ncccc1Cl` [Example 281], for which, in the data set with Boophilus microplus, the pest or weed control at 0.02 mg amounted to 100%. The pest or weed control at 100 ppm with Lucilia cuprina larvae and in the data set with adult Musca domestica was 100% each time. In addition, the pest or weed control at 100 g/ha in data set [4] (100 g/ha, after 6 days) came out at 100%; in [1] (100 g/ha, after 7 days), 100%; in data set [5] (100 g/ha, after 7 days), 100%. For the same compound, in data set [3], the chromatographic logP was determined as 3.37.

As to `Cc1cc(Cl)cc(C(=O)NC2(C3CC3)CC2)c1NC(=O)c1cc(Cn2ncc(C(F)(F)F)n2)nn1-c1ncccc1Cl` [Example 282], the pest or weed control at 0.02 mg with Boophilus microplus was determined as 100%. Also, the pest or weed control at 100 ppm came out at 100% in the data set with Lucilia cuprina larvae and 80% in the data set on adult Musca domestica. Besides, the pest or weed control at 100 g/ha in [4] (100 g/ha, after 6 days) was 80%; in [1] (100 g/ha, after 7 days), 100%; in data set [5] (100 g/ha, after 7 days) it was 100%. For the same compound, in data set [3], the chromatographic logP was 3.78.

As to `CSC[C@H](C)NC(=O)c1cc(I)cc(C)c1NC(=O)c1cc(Cn2cc(C(F)(F)C(F)(F)C(F)(F)F)nn2)nn1-c1ncccc1Cl` [Example 321], the pest or weed control at 100 g/ha in data set [4], in data set [1] and in [5] was 100% throughout. Also, the activity in % in data set [2] is on record as 90%. The chromatographic logP in [3] (setting [7]) is 4.27.

Regarding `Cc1cc(I)cc(C(=O)NC2CC2)c1NC(=O)c1cc(Cn2ncc(C(F)(F)C(F)(F)C(F)(F)F)n2)nn1-c1ncccc1Cl` [Example 375], the pest or weed control at 100 g/ha in data set [1] and in data set [5] was 100% each time. Further, the activity in % in [2] amounted to 90%. Also, the chromatographic logP in data set [3] (setting [7]) was determined as 4.23.

Take `Cc1cc(Cl)cc(C(N)=O)c1NC(=O)c1cc(Cn2cc(C(F)(F)C(F)(F)F)nn2)nn1-c1ncccc1Cl` [drawing 449]: the “% Activity” value in data set [6] was 100 6 d %.

On to `Cc1cc(Cl)cc(C(N)=O)c1NC(=O)c1cc(Cn2nnc(C(F)(F)C(F)(F)F)n2)nn1-c1ncccc1Cl` [reference compound], for which the “% Activity” value in [6] is 80 6 d %.
